The target in the first assay is human NAMPT enzyme (His-hNAMPT) (Homo sapiens (Human), UniProt P43490). The experiment in a line: NAMPT enzymatic inhibition assay (fluorescence, NADH product). Type of assay: biochemical. The note with it: [BPS]; read-out: NAMPT IC50 (μM) [BPS]. As to the method:
The compounds were then diluted 20 fold in an intermediate dilution to 5% DMSO and water. Finally 10 μL of each compound was added to the assay plate, in duplicate, with highest concentration at 30 μM and the lowest at 0.001 μM in a final volume of 50 μL and 1% DMSO concentration. Each assay also tested, in parallel, two reference compounds, FK866 and GMX1778, with highest concentration at 10 μM and lowest at 0.0003 μM. 200 ng of human NAMPT enzyme (His-hNAMPT obtained from E. coli expression system) diluted in […] (tris-buffered saline-Polysorbate 20) 1× was added to each well in a volume of 10 μL and the compounds were incubated with the enzyme at room temperature for 20 minutes. After the incubation, 30 μL of master mixture were added to each well. The master mixture contained: 50 mM Tris-HCl, pH 8.0, 12.5 mM MgCl2, 20 μM nicotinamide, 40 μM phosphoribosyl pyrophosphate (PRPP), 20 μM adenosine triphosphate (ATP), 30 μg/mL of alcohol dehydrogenase, 10 μg/mL of NMNAT, 1.5% alcohol, 1 mM dithiothreitol (DTT), 0.02% bovine serum albumin (BSA), 0.01% Tween 20. The reaction was performed at 30° C. for 60 minutes. Fluorescence intensity was measured at an excitation of 340 nm and an emission of 460 nm using a Tecan Infinite M1000 microplate reader. The fluorescence values indicated increase of NADH product.
Enzyme activity assay was performed in duplicate at each concentration. The fluorescence data was analyzed and compared. In the absence of the compound, the intensity (Ce) in each data set was defined as 100% activity. In the absence of enzyme, the intensity (C0) in each data set was defined as 0% activity. The percent activity in the presence of each compound was calculated according to the following equation: % activity=(C−C0)/(Ce−C0), where C is the fluorescence in the presence of the compound.
The % activity vs. compound concentrations were then plotted using non-linear regression analysis of Sigmoidal dose-response curve generated with the equation Y=B+(T−B)/1+10^((Log EC50-X)×Hill Slope), where Y is percent activity, B is minimum percent activity, T is maximum percent activity, X is logarithm of compound and Hill Slope=slope factor or Hill coefficient.
Chain of human NAMPT enzyme (His-hNAMPT) (P43490 whole entry): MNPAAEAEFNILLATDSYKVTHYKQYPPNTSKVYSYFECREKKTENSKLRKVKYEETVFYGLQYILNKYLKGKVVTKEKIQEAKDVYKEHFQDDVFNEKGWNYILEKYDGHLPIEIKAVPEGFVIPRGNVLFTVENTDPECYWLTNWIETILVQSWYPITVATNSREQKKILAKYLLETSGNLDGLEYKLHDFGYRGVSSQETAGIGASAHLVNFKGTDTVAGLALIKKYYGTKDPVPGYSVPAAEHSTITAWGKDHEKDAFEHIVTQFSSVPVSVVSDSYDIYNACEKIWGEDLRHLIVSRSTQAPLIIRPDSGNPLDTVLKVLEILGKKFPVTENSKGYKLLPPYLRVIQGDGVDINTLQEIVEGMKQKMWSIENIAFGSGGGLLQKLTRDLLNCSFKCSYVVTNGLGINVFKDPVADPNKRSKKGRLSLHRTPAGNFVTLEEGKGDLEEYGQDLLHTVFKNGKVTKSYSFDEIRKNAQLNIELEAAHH
As for `CC(C)(C)OC(=O)N1C[C@@H]2[C@@H](CCNC(=O)COc3cccnc3)[C@@H]2C1` [Example 2, (1R,5S,6s)-tert-butyl 6-(2-(2-(pyridin-3-yloxy)acetamido)ethyl)-3-azabicyclo[3.1.0]hexane-3-carboxylate], the IC50 fell in the range of 0.01 to 0.49 µM. Still for that read-out and setting: for `CC(C)(C)OC(=O)N1C[C@@H]2[C@@H](CCNC(=O)c3cc4ccncc4s3)[C@@H]2C1` [Example 3] the value was 0.01 to 0.49 µM. Still for that read-out and setting: for `CC(C)(C)OC(=O)N1C[C@@H]2[C@@H](CCNC(=O)/C=C/c3ccc(N)nc3)[C@@H]2C1` [Example 4, (1R,5S,6s)-tert-butyl 6-(2-((E)-3-(6-aminopyridin-3-yl)acrylamido)ethyl)-3-azabicyclo[3.1.0]hexane-3-carboxylate] the value was 0.01 to 0.49 µM. Still for that read-out and setting: for `CC(C)(C)OC(=O)N1C[C@@H]2[C@@H](CCNC(=O)c3cc4ccncc4o3)[C@@H]2C1` [Example 5] the value was 0.01 to 0.49 µM; for `CC(C)(C)OC(=O)N1C[C@@H]2[C@@H](CCNC(=O)c3ccc4sccc4c3)[C@@H]2C1` [Example 6, (1R,5S,65s)-tert-butyl 6-(2-(benzo[b]thiophene-5-carboxamido)ethyl)-3-azabicyclo[3.1.0]hexane-3-carboxylate], 0.01 to 0.49 µM. Take `CC(C)(C)OC(=O)N1C[C@@H]2[C@@H](CCNC(=O)c3ccc4nccn4c3)[C@@H]2C1` [Example 7, (1R,5S,6s)-tert-butyl 6-(2-(imidazo[1,2-a]pyridine-6-carboxamido)ethyl)-3-azabicyclo[3.1.0]hexane-3-carboxylate]: the IC50 fell in the range of 0.01 to 0.49 µM. The same measure, in the same setting: for `CC(C)(C)OC(=O)N1C[C@@H]2[C@@H](CCNC(=O)C(C)(C)C)[C@@H]2C1` [Example 8, (1R,5S,6s)-tert-butyl 6-(2-pivalamidoethyl)-3-azabicyclo[3.1.0]hexane-3-carboxylate] the value was above 30 µM; for `CC(C)(C)OC(=O)N1C[C@@H]2[C@@H](CCNC(=O)[C@H]3C[C@@H]3c3cccnc3)[C@@H]2C1` [Example 10, (1R,5S,6s)-tert-butyl 6-(2-((1R,2R)-2-(pyridin-3-yl)cyclopropanecarbox-amido)ethyl)-3-azabicyclo[3.1.0]hexane-3-carboxylate], 0.01 to 0.49 µM. On to `CC(C)(C)OC(=O)N1C[C@@H]2[C@@H](CCNC(=O)c3nc4ccncc4s3)[C@@H]2C1` [Example 11, (1R,5S,6s)-tert-butyl 6-(2-(thiazolo[5,4-c]pyridine-2-carboxamido)ethyl)-3-azabicyclo[3.1.0]hexane-3-carboxylate], for which the concentration for half-maximal inhibition (IC50) is 0.5 to 0.99 µM. As for `CC(C)(C)OC(=O)N1C[C@@H]2[C@@H](CCNC(=O)c3cc(-c4cccnc4)on3)[C@@H]2C1` [Example 12, (1R,5S,6s)-tert-butyl 6-(2-(5-(pyridin-3-yl)isoxazole-3-carboxamido)ethyl)-3-azabicyclo[3.1.0]hexane-3-carboxylate], the IC50 was below 0.01 µM. On the same count and under the same terms, for `CC(=O)NCC[C@@H]1[C@H]2CN(C(=O)OC(C)(C)C)C[C@@H]12` [Example 14, (1R,5S,6s)-tert-butyl 6-(2-azetamidoethyl)-3-azabicyclo[3.1.0]hexane-3-carboxylate] the value was above 30 µM; for `CC(C)(C)OC(=O)N1C[C@@H]2[C@@H](CCNC(=O)N3Cc4ccccc4C3)[C@@H]2C1` [Example 15, (1R,5S,6s)-tert-butyl 6-(2-(isoindoline-2-carboxamido)ethyl)-3-azabicyclo[3.1.0]hexane-3-carboxylate], 0.01 to 0.49 µM; for `CC(C)(C)OC(=O)N1C[C@@H]2[C@@H](CCNC(=O)N3CCc4sccc4C3)[C@@H]2C1` [Example 16, (1R,5S,6s)-tert-butyl 6-(2-(4,5,6,7-tetrahydrothioeno[3,2-c]pyridine-5-carboxamido)ethyl)-3-azabicyclo[3.1.0]hexane-3-carboxylate], 0.01 to 0.49 µM.

Take `CC(C)(C)OC(=O)N1C[C@@H]2[C@@H](CCNC(=O)N3CC(c4cccnc4)C3)[C@@H]2C1` [Example 17, (1R,5S,6s)-tert-butyl 6-(2-(3-(pyridin-3-yl)azetidine-1-carboxamido)ethyl)-3-azabicyclo[3.1.0]hexane-3-carboxylate]: the IC50 lay within 0.01 to 0.49 µM.

With `CC(C)(C)OC(=O)N1C[C@@H]2[C@@H](CCNC(=NC#N)Nc3ccncc3)[C@@H]2C1` [Example 18, (1R,5S,6s)-tert-butyl 6-(2-((E)-2-cyano-3-(pyridin-4-yl)guanidino)ethyl)-3-azabicyclo[3.1.0]hexane-3-carboxylate], the half-maximal inhibitory concentration (IC50) lay within 0.01 to 0.49 µM. The same measure, in the same setting: the figure for `CC(C)(C)OC(=O)N1C[C@@H]2[C@@H](CCNC(=O)NCc3cccnc3)[C@@H]2C1` [Example 19, (1R,5S,6s)-tert-butyl 6-(2-(3-((pyridin-3-yl)methyl)ureido)ethyl)-3-azabicyclo[3.1.0]hexane-3-carboxylate] is 0.01 to 0.49 µM; for `CC(C)(C)OC(=O)N1C[C@@H]2[C@@H](CCNC(=O)N3Cc4ccncc4C3)[C@@H]2C1` [Example 20, (1R,5S,6s)-tert-butyl 6-(2-(2,3-dihydro-1H-pyrrolo[3,4-c]pyridine-2-carboxamido)ethyl)-3-azabicyclo[3.1.0]hexane-3-carboxylate] it is 0.01 to 0.49 µM; for `CC1(OC(=O)N2C[C@@H]3[C@@H](CCNC(=O)/C=C/c4cccnc4)[C@@H]3C2)COC1` [Example 21, (1R,5S,6s)-3-methyloxetan-3-yl 6-(2-((E)-3-(pyridin-3-yl)acrylamido)ethyl)-3-azabicyclo[3.1.0]hexane-3-carboxylate] it is 0.01 to 0.49 µM. Regarding `O=C(/C=C/c1cccnc1)NCC[C@@H]1[C@H]2CN(C(=O)c3ccccc3)C[C@@H]12` [Example 22, (E)-N-(2-((1R,5S,6s)-3-benzoyl-3-azabicyclo[3.1.0]hexan-6-yl)ethyl)-3-(pyridin-3-yl)acrylamide], the IC50 lay in the range of 0.01 to 0.49 µM.

With `O=C(/C=C/c1cccnc1)NCC[C@@H]1[C@H]2CN(S(=O)(=O)c3ccccc3)C[C@@H]12` [Example 23, (E)-N-(2-((1R,5S,6s)-3-(phenylsulfonyl)-3-azabicyclo[3.1.0]hexan-6-yl)ethyl)-3-(pyridin-3-yl)acrylamide], the IC50 lay within 0.01 to 0.49 µM.

Turning to `CC1(OC(=O)N2C[C@@H]3[C@@H](CCNC(=O)/C=C/c4ccc(N)nc4)[C@@H]3C2)COC1` [Example 24, (1R,5S,6s)-3-methyloxetan-3-yl 6-(2-((E)-3-(6-aminopyridin-3-yl)acrylamido)ethyl)-3-azabicyclo[3.1.0]hexane-3-carboxylate], the concentration for half-maximal inhibition (IC50) was in the range of 0.01 to 0.49 µM.

`Nc1ccc(/C=C/C(=O)NCC[C@@H]2[C@H]3CN(C(=O)c4ccccc4)C[C@@H]23)cn1` [Example 25, (E)-3-(6-aminopyridin-3-yl)-N-(2-((1R,5S,6s)-3-benzoyl-3-azabicyclo[3.1.0]hexan-6-yl)ethyl)acrylamide]: the IC50 was 0.01 to 0.49 µM. As for `CC1(OC(=O)N2C[C@@H]3[C@@H](CCNC(=O)c4cc5ccncc5s4)[C@@H]3C2)COC1` [Example 26, (1R,5S,6s)-3-methyloxetan-3-yl 6-(2-(thieno[2,3-c]pyridine-2-carboxamido)ethyl)-3-azabicyclo[3.1.0]hexane-3-carboxylate], the IC50 was in the range of 0.01 to 0.49 µM. Regarding `CC1(OC(=O)N2C[C@@H]3[C@@H](CCNC(=O)c4cc5ccncc5o4)[C@@H]3C2)COC1` [Example 27, (1R,5S,6s)-3-methyloxetan-3-yl 6-(2-(furo[2,3-c]pyridine-2-carboxamido)ethyl)-3-azabicyclo[3.1.0]hexane-3-carboxylate], the IC50 fell in the range of 0.01 to 0.49 µM. The same measure, in the same setting: the figure for `Nc1ccc(/C=C/C(=O)NCC[C@@H]2[C@H]3CN(C(=O)NCc4ccccc4)C[C@@H]23)cn1` [Example 28, (1R,5S,6s)-6-(2-((E)-3-(6-aminopyridin-3-yl)acrylamido)ethyl)-N-benzyl-3-azabicyclo[3.1.0]hexane-3-carboxamide] is 0.01 to 0.49 µM.

The same assay, now with this note: [HDB]; read-out: NAMPT IC50 (μM) [HDB].
As to `Cc1noc2ncc(/C=C/C(=O)NCC[C@@H]3[C@H]4CN(C(=O)OC(C)(C)C)C[C@@H]34)cc12` [Example 9, tert-butyl (1R,5S,6s)-6-(2-((E)-3-(3-methylisoxazolo[5,4-b]pyridin-5-yl)acrylamido)ethyl)-3-azabicyclo[3.1.0]hexane-3-carboxylate], the IC50 fell in the range of 0.01 to 0.49 µM.

On to `CC(C)(C)OC(=O)N1C[C@@H]2[C@@H](CCNC(=O)c3cc4cc(N)ncc4s3)[C@@H]2C1` [Example 13, (1R,5S,6s)-tert-butyl 6-(2-(5-aminothieno[2,3-c]pyridine-2-carboxamido)ethyl)-3-azabicyclo[3.1.0]hexane-3-carboxylate], for which the IC50 fell in the range of 0.01 to 0.49 µM.

Consider `CC(C)(C)OC(=O)N1C[C@@H]2[C@@H](CCNC(=O)N3CC(c4cccnc4)C3)[C@@H]2C1` [Example 17, (1R,5S,6s)-tert-butyl 6-(2-(3-(pyridin-3-yl)azetidine-1-carboxamido)ethyl)-3-azabicyclo[3.1.0]hexane-3-carboxylate], for which the IC50 is below 0.01 µM. Turning to `O=C(/C=C/c1cccnc1)NCC[C@@H]1[C@H]2CN(S(=O)(=O)c3ccccc3)C[C@@H]12` [Example 23, (E)-N-(2-((1R,5S,6s)-3-(phenylsulfonyl)-3-azabicyclo[3.1.0]hexan-6-yl)ethyl)-3-(pyridin-3-yl)acrylamide], the half-maximal inhibitory concentration (IC50) was in the range of 0.01 to 0.49 µM.

As to `Nc1ccc(/C=C/C(=O)NCC[C@@H]2[C@H]3CN(C(=O)c4ccccc4)C[C@@H]23)cn1` [Example 25, (E)-3-(6-aminopyridin-3-yl)-N-(2-((1R,5S,6s)-3-benzoyl-3-azabicyclo[3.1.0]hexan-6-yl)ethyl)acrylamide], the IC50 lay in the range of 0.01 to 0.49 µM.

As usually defined, the IC50 is the concentration that inhibits the measured activity by half.

These data come from patent US12421210B2, “Fused bicyclic heterocycles as therapeutic agents” (NEW YORK UNIVERSITY, priority 2018, dated 2025).
